This note sets out measurements from patent publication US11912785B2, “Peptide compositions for slowing degradation of vitamin mineral supplements, foods, pharmaceutical and cosmetics” (priority 2017, dated 2024).

Data set [1] in a line: Decay of sodium ascorbate in HEPES pH 7.2 with 63 μM cupric sulfate. The format is physicochemical. The method, then:
Example 11 The effect of 1,1,1-Ala-Asp-Asp on the decay of sodium ascorbate in 10 mM HEPES pH 7.2 at 37 was compared with 1,1,1-triaspartate in the presence of 63 μM cupric sulfate (equivalent to 2 mg of elemental copper per 500 mL). […] This difference is somewhat offset by the ˜12% lower molecular weight of the former.

Data set [2] is described as follows: USP type 2 dissolution of Product #1a with peptide in the medium. The settings on record: for ascorbic acid recovered / maintained (in words): 0.25 mM, 45 min. The method, then:
(§1) The dissolution studies described herein used a U.S. Pharmacopeia (USP) type 2 apparatus with 500 ml distilled H2O at 37° C. stirred at 50 RPM. […] Oxygen concentration was monitored with a Clarke electrode calibrated against argon and air sparged water at 37 C. The disappearance of several components was gauged against a mixture of pure standards of known concentration.
Product #1a also contained caffeine.

A short description of data set [3]: Decay of 5-MTHF in HEPES pH 7.2 with cupric sulfate and peptide. The format is physicochemical. The settings on record: for half-life of 5-MTHF: 150 μM cupric sulfate. As to the method:
(§2) Aqueous solutions of air saturated buffer, peptide, one or more vitamins, and metal salt (e.g. ferrous chloride or cupric sulfate) were combined and incubated at 37 C, unless otherwise stated. Samples were injected into the HPLC system as a function of time and monitored by a photodiode array detector.

Data set [4] can be described thus: Decomposition of 5-MTHF in 1 mM HCl with cupric sulfate. Type of data set: physicochemical. The following applies: 3 mM peptide, 150 μM cupric sulfate, 37 C. As to the method: The decomposition of 5-MTHF is slower in acidic solutions than at neutral pH, and this was found even in the presence of cupric ions. […] With 3 mM 1,1,1-triaspartic free acid also present the time to half decomposition was increased to around 30 minutes.

Data set [5] can be described thus: USP type 2 dissolution of Product #1b with copper added as CuSO4 and peptide. The format is physicochemical. The method, then: as §1
Data set [6] is described as follows: Effect of cupric sulfate on vitamin B12, thiamine, folic acid and sodium ascorbate in MES pH 6.2. The format is physicochemical. The following applies: 3 mM peptide; 10 mM MES pH 6.2, 150 μM cupric sulfate. As to the method:
In the presence of 3 mM 1,1,1-triaspartate (as the tetra-sodium salt) the loss of Vitamin B12 was limited to about 20% even after 2 hours. Thiamine also rapidly disappeared by 40% over the first 26 minutes and then remained constant in the absence of an aspartate peptide. However, with 3 mM Asp-Asp-Asp included only 8% was lost at 36 min.

Data set [7] can be described thus: Effect of cupric sulfate on folic acid plus sodium ascorbate in various buffers. The settings on record: for initial ascorbate lost after 2 hours: 10 mM HEPES pH 7.2, 150 μM cupric sulfate. As to the method: as §2
Reactions were continuously but slow sparged with air so that oxygen would not become limiting.

The conditions of data set [8]: product #2; 1 mM peptide. The method, then:
as §1

Data set [9] in a line: Water uptake and handling of peptide salts on exposure to atmosphere or humidity. The format is physicochemical. The settings on record: for handling state after exposure to the atmosphere / weight gain (water) when left open to the atmosphere: ambient. The method, then: One such matrix is microcrystalline cellulose which is commonly used as an excipient in vitamin and mineral products. A method of combining the peptide salt with the excipient was also developed in which the former is dissolved in a suitable solvent, for example water, the excipient added with stirring, and removing the solvent from the mixture, for example by rotary evaporation under reduced pressure or lyophilization.
The resulting material was crushed to pass through a 200 mesh sieve.
The precipitate was resuspended in 0.5 ml ice-cold water, centrifuged again, and the second supernate discarded.
The precipitate was resuspended in 0.5 ml ice-cold water, recentrifuged, and the second supernate discarded. […] This was centrifuged and dried under high vacuum over P2O5.

The conditions of data set [10]: 3 mM peptide, 3 mM ferrous chloride, 40 mM MES pH 6.2. The method, then:
as §2

[11] abbreviates: 3 mM peptide, 50 mM MES pH 5.5, 150 μM cupric sulfate.
The mark [12] stands for this setting: 2 mM peptide, 25 μM 5-MTHF, 10 mM HEPES pH 7.2, 37 C.

No end group written: not given here.

For 1,1,1-Ala-Asp-Asp, the “effectiveness compared with triaspartic acid on a molar basis” value in data set [1] was “about half as effective”. For the same compound, the “1st-order rate of ascorbate loss compared with Asp-Asp-Asp” value in data set [1] (0.25 mM peptide, 63 μM cupric sulfate, 10 mM HEPES pH 7.2, 37) was “almost twice as fast”.
Take `N[C@@H](CC(=O)O)C(=O)O` [aspartic acid, reference compound]: the “rate of oxygen consumption compared with no peptide” value (shortened to “rate … compared with no peptide”) in data set [2] (Product #1a, 0.25 mM peptide) is on record as “no improvement”. The “ascorbic acid recovered / maintained (in words)” value in [2] (Product #1a) is “no improvement”.
With Asp-Asp-Asp, the “half-life of 5-MTHF (in words)” value in data set [3] (0.5 mM peptide) is given as “longer than Asp2”. Further, the “time to half decomposition of 5-MTHF” value in data set [4] is reported as “around 30 minutes”. Besides, in data set [2] (Product #1a, 0.25 mM peptide), the “extent of caffeine oxidation to 1,3,7-trimethyluric acid compared with no peptide” value is given as “more than halved”; the “folic acid in filtrate, of the labeled amount, 10 minute sample” value is “about 55%”; the “folic acid in filtrate, of the labeled amount, 45 minute sample” value was “about 70%”; the “p-aminobenzoyl-glutamate in the final sonicated sample compared with absence of peptide” value was “decreased to half”. Besides, in [2] (Product #1a, 0.25 mM peptide), the “thiamine present at 45 minutes, of labeled content” value is reported as 104% and the “thiamine present at 45 minutes, of the actual content of the tablets” value amounted to 83%. Also, the “concentration required for half maximal effect in preventing loss of ascorbate” value in data set [5] (1 mg of copper added as CuSO4, compared with 2 mg) is “somewhat lower concentration”. In addition, in data set [5] (copper added as CuSO4, peptide 0.05 to 0.5 mM, hyperbolic fit, read-out: concentration required for 50% of maximal effectiveness in preventing ascorbate loss), the EC50 was approximately 50 µM. Besides, in [6], the “thiamine lost at 36 min” value worked out at 8%. In [7] (setting [11]), the “folic acid recovered after 82 minutes” value is listed as “more than 50%” and the “time until ascorbate completely consumed” value was 47 min.
In the case of “Asp-Asp-Asp tetrasodium salt [tetra-sodium 1,1,1-triaspartate, Tetra-sodium-1,1,1-triaspartate]”, the “half-life of 5-MTHF” value in [3] (setting [12]) is 3.3 h. In data set [8], the “increase of average recovery of ascorbic acid at 45 minutes over no peptide” value was determined as 16% and the “increase of average recovery of thiamine at 45 minutes over no added peptide” value is recorded as 20%. In addition, in data set [9] (open to the atmosphere), the “handling state after exposure to the atmosphere” value is given as “became sticky” and the “weight gain (water) when left open to the atmosphere” value (“weight gain (water) when left open” for short) is listed as 14%. For the same compound, the “ascorbic acid recovered after 45 min, higher than with water only” value in [2] (Product #1a, 0.125 mmole peptide in 500 mL (0.25 mM), initial pH ~6.5, 37° C.) is on record as “about 16 fold”. Moreover, in data set [2] (Product #1a, 0.25 mM peptide), the “oxygen remaining after 45 min, part of the original concentration” value is given as “about a third” and the “rate … compared with no peptide” value was “dramatically decreased”. Moreover, the “loss of Vitamin B12 after 2 hours” value in data set [6] is on record as “about 20%”. Moreover, in data set [7] (1 mM peptide), the “initial ascorbate lost after 2 hours” value came to 33%. Further, the “initial ascorbate lost after 2 hours” value in data set [7] (3 mM peptide) is 18%. Further, the “ascorbate remaining by 32 minutes” value in [7] (3 mM peptide, 10 mM MES pH 6.2, 150 μM cupric sulfate, air sparged) is on record as 35%. Moreover, in data set [10], the “time without significant loss of 5-MTHF” value is recorded as “about 50 minutes”. Moreover, the “decrease of 5-MTHF thereafter” value in [10] (after about 50 minutes) is given as “about 17 % per hour”.
For “Calcium1.5-1,1,1-triaspartate [Example D]”, the “handling state after 24 hours at 90% RH” value in [9] (90% RH, 24 hours) was “clumped slightly, but was easy to break up and was not sticky”. In addition, in data set [9] (open to the atmosphere), the “handling state after exposure to the atmosphere” value is on record as “remained free flowing flakes that were never sticky” and the “weight gain (water) when left open” value is on record as approximately 10%.
In the case of Ferrous 1,1,1-triaspartate [Example P], the “color / oxidation when open to air via a drying tube” value in [9] (open to air via a drying tube) is “did not change color or significantly oxidize”. Moreover, in data set [9] (open to the atmosphere), the “weight gain (water) when left open” value is 13%. Also, in [9] (open to the atmosphere, several days), the “color / oxidation when kept open to the atmosphere” value is given as “became dark brown due to partial oxidation to iron(III)”.
Regarding “N-acetyl-1,1,1-triaspartic acid [reference compound]”, in data set [2] (test conditions not stated), the “ability to inhibit oxidative destruction of other multivitamin components” value is “lack of effectiveness”.
For “penta-sodium 1,1,1,1-tetraaspartate (DDDD; also: penta-sodium salt)”, in data set [3], the “effectiveness compared with triaspartic acid on a molar basis” value is given as “just as effective on a molar basis”. The “half-life of 5-MTHF” value in data set [3] (setting [12]) turned out to be 2.97 h.
Consider “tri-sodium 1,1,1-His-Asp-Asp [reference compound]”, for which the “maintenance of ascorbate or thiamine, diminishing oxygen consumption, or oxidation of other components” value in data set [2] (Product #1a, 0.25 mM peptide, pH ~6.5) is given as “No improvement”.
For tri-sodium 1,1-diaspartate, in data set [3] (setting [12]), the “half-life of 5-MTHF” value came out at 1.2 h. Further, the “half-life of 5-MTHF” value in data set [3] (3 mM peptide, HEPES pH 7.2, 37 C) came to 1.45 h. The “half-life of 5-MTHF” value in [3] (4 mM peptide, HEPES pH 7.2, 37 C) was found to be 1.67 h. In data set [2] (Product #1a, 0.25 mM peptide), the “profile of folic acid appearance in solution” value is “greater than without any peptide, and similar to that liberated by 0.05 mM Asp-Asp-Asp”; the “profile of p-aminobenzoyl-glutamate formation” value is “suppressed in comparison to without any peptide, and similar to 0.05 mM Asp-Asp-Asp”; the “profile of thiamine appearance in solution” value is reported as “not significantly different than without peptide”; the “rate … compared with no peptide” value is “less than without a peptide”. Moreover, the “ascorbic acid recovered / maintained (in words)” value in data set [2] (Product #1a) is given as “greater than with no Asp2 but somewhat less than in the presence of 0.25 mM Asp-Asp-Asp”.
